Assays:
Conditions in all cases: 48 h
P12-Ichikawa [1] = test: cell viability relative to DMSO control; higher = less cytotoxic
Procedure, shortened: (§1)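 Viability is expressed as a percentage of DMSO wells within each plate, and cell-free wells serve as background. Seeding densities in the 1536-well plates (5 μl) were 500 cells/well for NOMO1 or SEM leukemia cells and 1000 cells/well for P12-Ichikawa. Each line was adapted for at least four passages in each medium. Library compounds in DMSO were pin-dosed at 47 μM to 0.79 nM (11 points, threefold), and CellTiter-Glo One luminescence was read after 48 h at 37°C.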

SEM cells [2] = test: as above
Procedure, shortened: as §1

NOMO1 [3] = test: as above
Procedure, shortened: as §1

P12-Ichikawa [4] = test: AUC of viability dose-response curve (% viability x log10 dose units); higher = less sensitive
Procedure, shortened: (§2)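 Library compounds in DMSO were applied for 48 h at 37°C at 11 threefold doses (47 μM to 0.79 nM) to medium-adapted leukemia cells in 1536-well plates holding 500 or 1000 cells/well. Luminescence from CellTiter-Glo One was normalised plate by plate against DMSO and cell-free wells. Area under the curve came from trapezoidal integration of a log-logistic fit, after scaling curves that rose above full viability and discarding those that failed quality control. The fit had four parameters and used log10 doses.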

SEM cells [5] = test: as above
Procedure, shortened: as §2

NOMO1 [6] = test: as above
Procedure, shortened: as §2

COC1=CC=CC2=C1C(=NC(=N2)C3=CC=CS3)NN4C(=O)\C=C(C)/C4=O
cell viability [%]
Conditions | NOMO1 [3] | P12-Ichikawa [1] | SEM cells [2]
HPLM + 10% dialyzed FBS, 0.000781 µM | 95.7 | 94.4 | 86.8
HPLM + 10% dialyzed FBS, 0.00234 µM | 103 | 98.3 | 96.3
HPLM + 10% dialyzed FBS, 0.00702 µM | 94 | 104 | 101
HPLM + 10% dialyzed FBS, 0.0211 µM | 87.7 | 92.5 | 87.5
HPLM + 10% dialyzed FBS, 0.0632 µM | 77.6 | 93.2 | 72.4
HPLM + 10% dialyzed FBS, 0.19 µM | 60.3 | 86.5 | 69.1
HPLM + 10% dialyzed FBS, 0.569 µM | 44.1 | 62.2 | 42.5
HPLM + 10% dialyzed FBS, 1.71 µM | 38.2 | 56.8 | 29.7
HPLM + 10% dialyzed FBS, 5.12 µM | 8.17 | 19.7 | 11.3
HPLM + 10% dialyzed FBS, 15.4 µM | 1.91 | 4.94 | 2.5
HPLM + 10% dialyzed FBS, 46.1 µM | 2.25 | 1.01 | 2.94
RPMI 5 mM glucose + 10% FBS, 0.000781 µM | 90 | 90.6 | 90.3
RPMI 5 mM glucose + 10% FBS, 0.00234 µM | 88.4 | 93.7 | 99
RPMI 5 mM glucose + 10% FBS, 0.00702 µM | 92.9 | 92.2 | 93.5
RPMI 5 mM glucose + 10% FBS, 0.0211 µM | 84.8 | 92.9 | 92.2
RPMI 5 mM glucose + 10% FBS, 0.0632 µM | 92.3 | 84.7 | 81.9
RPMI 5 mM glucose + 10% FBS, 0.19 µM | 78.2 | 75.4 | 75.5
RPMI 5 mM glucose + 10% FBS, 0.569 µM | 56.2 | 62.8 | 59.5
RPMI 5 mM glucose + 10% FBS, 1.71 µM | 48.2 | 59.7 | 36
RPMI 5 mM glucose + 10% FBS, 5.12 µM | 14.4 | 21.3 | 5.68
RPMI 5 mM glucose + 10% FBS, 15.4 µM | 3.32 | 4.06 | 1.13
RPMI 5 mM glucose + 10% FBS, 46.1 µM | 4.06 | 0.767 | 2.39
RPMI 5 mM glucose + 10% dialyzed FBS, 0.000781 µM | 81.1 | 87 | 87.3
RPMI 5 mM glucose + 10% dialyzed FBS, 0.00234 µM | 85.3 | 90.7 | 87.2
RPMI 5 mM glucose + 10% dialyzed FBS, 0.00702 µM | 94.5 | 94.6 | 88.5
RPMI 5 mM glucose + 10% dialyzed FBS, 0.0211 µM | 82.4 | 86.7 | 78.1
RPMI 5 mM glucose + 10% dialyzed FBS, 0.0632 µM | 74.6 | 87.8 | 76.3
RPMI 5 mM glucose + 10% dialyzed FBS, 0.19 µM | 68.8 | 74.1 | 83.1
RPMI 5 mM glucose + 10% dialyzed FBS, 0.569 µM | 50.4 | 62.3 | 57.4
RPMI 5 mM glucose + 10% dialyzed FBS, 1.71 µM | 38.9 | 54.9 | 41.3
RPMI 5 mM glucose + 10% dialyzed FBS, 5.12 µM | 16.9 | 23.7 | 5.19
RPMI 5 mM glucose + 10% dialyzed FBS, 15.4 µM | 4.27 | 3.09 | 1.14
RPMI 5 mM glucose + 10% dialyzed FBS, 46.1 µM | 2.63 | 0.857 | 2.21

AUC of viability dose-response curve
Conditions | NOMO1 [6] | P12-Ichikawa [4] | SEM cells [5]
HPLM + 10% dialyzed FBS | 269 | 318 | 264
RPMI 5 mM glucose + 10% FBS | 290 | 302 | 282
RPMI 5 mM glucose + 10% dialyzed FBS | 265 | 297 | 270

[NH2][Pt]1([NH2])[O]CC(=O)[O]1
cell viability [%]
Conditions | NOMO1 [3] | P12-Ichikawa [1] | SEM cells [2]
HPLM + 10% dialyzed FBS, 0.000781 µM | 96.9 | 93.6 | 78.3
HPLM + 10% dialyzed FBS, 0.00234 µM | 109 | 98.4 | 95.6
HPLM + 10% dialyzed FBS, 0.00702 µM | 98 | 101 | 96.2
HPLM + 10% dialyzed FBS, 0.0211 µM | 101 | 95.7 | 92.2
HPLM + 10% dialyzed FBS, 0.0632 µM | 96 | 105 | 91.2
HPLM + 10% dialyzed FBS, 0.19 µM | 108 | 102 | 102
HPLM + 10% dialyzed FBS, 0.569 µM | 97.8 | 102 | 94.4
HPLM + 10% dialyzed FBS, 1.71 µM | 106 | 101 | 97
HPLM + 10% dialyzed FBS, 5.12 µM | 85.9 | 105 | 108
HPLM + 10% dialyzed FBS, 15.4 µM | 91.3 | 103 | 96.7
HPLM + 10% dialyzed FBS, 46.1 µM | 88.3 | 105 | 89.7
RPMI 5 mM glucose + 10% FBS, 0.000781 µM | 94.5 | 98.5 | 104
RPMI 5 mM glucose + 10% FBS, 0.00234 µM | 83 | 88.3 | 100
RPMI 5 mM glucose + 10% FBS, 0.00702 µM | 99.1 | 96.9 | 110
RPMI 5 mM glucose + 10% FBS, 0.0211 µM | 85.2 | 99.5 | 96.4
RPMI 5 mM glucose + 10% FBS, 0.0632 µM | 82.4 | 104 | 108
RPMI 5 mM glucose + 10% FBS, 0.19 µM | 93.8 | 99.2 | 109
RPMI 5 mM glucose + 10% FBS, 0.569 µM | 98.7 | 102 | 95.5
RPMI 5 mM glucose + 10% FBS, 1.71 µM | 92.9 | 88.5 | 101
RPMI 5 mM glucose + 10% FBS, 5.12 µM | 93.8 | 92.4 | 103
RPMI 5 mM glucose + 10% FBS, 15.4 µM | 80.5 | 95.2 | 88.3
RPMI 5 mM glucose + 10% FBS, 46.1 µM | 84.3 | 102 | 96.3
RPMI 5 mM glucose + 10% dialyzed FBS, 0.000781 µM | 92.7 | 86.2 | 75.6
RPMI 5 mM glucose + 10% dialyzed FBS, 0.00234 µM | 86.9 | 93 | 84.2
RPMI 5 mM glucose + 10% dialyzed FBS, 0.00702 µM | 90.7 | 96.4 | 85.7
RPMI 5 mM glucose + 10% dialyzed FBS, 0.0211 µM | 98.1 | 89.4 | 83.6
RPMI 5 mM glucose + 10% dialyzed FBS, 0.0632 µM | 93.2 | 92.1 | 88.1
RPMI 5 mM glucose + 10% dialyzed FBS, 0.19 µM | 89.1 | 89.9 | 87.7
RPMI 5 mM glucose + 10% dialyzed FBS, 0.569 µM | 87.8 | 97.8 | 76.9
RPMI 5 mM glucose + 10% dialyzed FBS, 1.71 µM | 92.5 | 89.6 | 94.9
RPMI 5 mM glucose + 10% dialyzed FBS, 5.12 µM | 83.9 | 91.1 | 79
RPMI 5 mM glucose + 10% dialyzed FBS, 15.4 µM | 77.8 | 92.4 | 91.5
RPMI 5 mM glucose + 10% dialyzed FBS, 46.1 µM | 104 | 93.8 | 92.3

AUC of viability dose-response curve
Conditions | NOMO1 [6] | P12-Ichikawa [4] | SEM cells [5]
HPLM + 10% dialyzed FBS | 462 | 467 | 455
RPMI 5 mM glucose + 10% FBS | 429 | 463 | 464
RPMI 5 mM glucose + 10% dialyzed FBS | 432 | 439 | 407
